Reference: ChEMBL document CHEMBL3046389, “Synthesis and biological evaluation of novel hydroquinone dimethyl ethers as potential anticancer and antimicrobial agents” (2013)
In brackets after ≈: the same amount, converted by molar mass.

How the values were obtained:
Format in all cases: functional
M14 [1] = experiment: Growth inhibition of Homo sapiens (human) M14 cells at 10 uM after 48 hr by SRB assay; details: M14, 48 h, read-out: GI
Malme-3M = experiment: Anticancer activity against Homo sapiens (human) MALME-3M cells after 48 hr by SRB assay; details: for CC50: read-out: LC50 (the source's name)
SR = experiment: Anticancer activity against Homo sapiens (human) SR cells after 48 hr by SRB assay; details: for CC50: read-out: LC50 (the source's name)
SW-620 [2] = experiment: Growth inhibition of Homo sapiens (human) SW620 cells at 10 uM after 48 hr by SRB assay; details: SW-620, 48 h, read-out: GI
M14 [3] = experiment: Anticancer activity against Homo sapiens (human) M14 cells after 48 hr by SRB assay; details: M14, 48 h
SNB-19 = experiment: Growth inhibition of Homo sapiens (human) SNB19 cells at 10 uM after 48 hr by SRB assay; details: SNB-19, 48 h, read-out: GI
HCT-15 = experiment: Anticancer activity against Homo sapiens (human) HCT15 cells after 48 hr by SRB assay; details: HCT-15, 48 h; for CC50: read-out: LC50 (the source's name)
NCI-H23 = experiment: Growth inhibition of Homo sapiens (human) NCI-H23 cells at 10 uM after 48 hr by SRB assay; details: NCI-H23, 48 h, read-out: GI
MOLT-4 = experiment: Anticancer activity against Homo sapiens (human) MOLT4 cells after 48 hr by SRB assay; details: MOLT-4, 48 h; for CC50: read-out: LC50 (the source's name)
Candida albicans = experiment: Antimicrobial activity against Candida albicans DSM 70014 after 48 hr by two-fold serial broth dilution method; details: DSM 70014, 48 h
PC-3 = experiment: Growth inhibition of Homo sapiens (human) PC3 cells at 10 uM after 48 hr by SRB assay; details: PC-3, 48 h, read-out: GI
Bacillus subtilis = experiment: Antimicrobial activity against Bacillus subtilis ATCC 6633 after 48 hr by two-fold serial broth dilution method; details: ATCC 6633, 48 h
A549 [4] = experiment: Anticancer activity against Homo sapiens (human) A549/ATCC cells after 48 hr by SRB assay; details: A549, 48 h; for CC50: read-out: LC50 (the source's name)
CAKI-1 = experiment: Anticancer activity against Homo sapiens (human) CAKI-1 cells after 48 hr by SRB assay; details: CAKI-1, 48 h; for CC50: read-out: LC50 (the source's name)
SF-539 [5] = experiment: Growth inhibition of Homo sapiens (human) SF539 cells at 10 uM after 48 hr by SRB assay; details: SF-539, 48 h, read-out: GI
LOX IMVI [6] = experiment: Anticancer activity against Homo sapiens (human) LOXIMVI cells after 48 hr by SRB assay; details: for CC50: read-out: LC50 (the source's name)
CCRF-CEM [7] = experiment: Anticancer activity against Homo sapiens (human) CCRF-CEM cells after 48 hr by SRB assay; details: for CC50: read-out: LC50 (the source's name)
SK-MEL-28 = experiment: Anticancer activity against Homo sapiens (human) SK-MEL-28 cells after 48 hr by SRB assay; details: SK-MEL-28, 48 h
SK-MEL-2 = experiment: Anticancer activity against Homo sapiens (human) SK-MEL-2 cells after 48 hr by SRB assay; details: SK-MEL-2, 48 h; for CC50: read-out: LC50 (the source's name)
A549 [8] = experiment: Growth inhibition of Homo sapiens (human) A549/ATCC cells at 10 uM after 48 hr by SRB assay; details: A549, 48 h, read-out: GI
SNB-75 = experiment: Growth inhibition of Homo sapiens (human) SNB75 cells at 10 uM after 48 hr by SRB assay; details: SNB-75, 48 h, read-out: GI
K562 = experiment: Anticancer activity against Homo sapiens (human) K562 cells after 48 hr by SRB assay; details: K562, 48 h; for CC50: read-out: LC50 (the source's name)
SF-539 [9] = experiment: Anticancer activity against Homo sapiens (human) SF539 cells after 48 hr by SRB assay; details: SF-539, 48 h; for CC50: read-out: LC50 (the source's name)
A498 = experiment: Anticancer activity against Homo sapiens (human) A498 cells after 48 hr by SRB assay; details: A498, 48 h
Hs-578T = experiment: Anticancer activity against Homo sapiens (human) Hs 578T cells after 48 hr by SRB assay; details: for CC50: read-out: LC50 (the source's name)
HT-29 = experiment: Growth inhibition of Homo sapiens (human) HT-29 cells at 10 uM after 48 hr by SRB assay; details: HT-29, 48 h, read-out: GI
OVCAR-3 = experiment: Growth inhibition of Homo sapiens (human) OVCAR3 cells at 10 uM after 48 hr by SRB assay; details: OVCAR-3, 48 h, read-out: GI
MCF7 = experiment: Growth inhibition of Homo sapiens (human) MCF7 cells at 10 uM after 48 hr by SRB assay; details: MCF7, 48 h, read-out: GI
Pseudomonas aeruginosa = experiment: Antimicrobial activity against Pseudomonas aeruginosa ATCC 10145 after 48 hr by two-fold serial broth dilution method; details: ATCC 10145, 48 h
SW-620 [10] = experiment: Anticancer activity against Homo sapiens (human) SW620 cells after 48 hr by SRB assay; details: SW-620, 48 h; for CC50: read-out: LC50 (the source's name)
CCRF-CEM [11] = experiment: Growth inhibition of Homo sapiens (human) CCRF-CEM cells at 10 uM after 48 hr by SRB assay; details: read-out: GI
ACHN = experiment: Growth inhibition of Homo sapiens (human) ACHN cells at 10 uM after 48 hr by SRB assay; details: read-out: GI
HOP-62 = experiment: Growth inhibition of Homo sapiens (human) HOP62 cells at 10 uM after 48 hr by SRB assay; details: HOP-62, 48 h, read-out: GI
OVCAR-8 = experiment: Growth inhibition of Homo sapiens (human) OVCAR8 cells at 10 uM after 48 hr by SRB assay; details: OVCAR-8, 48 h, read-out: GI
LOX IMVI [12] = experiment: Growth inhibition of Homo sapiens (human) LOXIMVI cells at 10 uM after 48 hr by SRB assay; details: read-out: GI

COc1ccc(OC)c(/C=C/c2nnc(S)n2-c2ccc(Cl)cc2)c1
inhibition of growth at 10 µM (M14 [1]): 69% | GI50 (Malme-3M): 70.6 µM | TGI (Malme-3M): > 100 µM | CC50 (Malme-3M): > 100 µM | GI50 (SR): 4.56 µM | TGI (SR): > 100 µM | CC50 (SR): > 100 µM | inhibition of growth at 10 µM (SW-620 [2]): 49.6% | GI50 (M14 [3]): 4.24 µM | LC50 (M14 [3]): > 100 µM | TGI (M14 [3]): > 100 µM | inhibition of growth at 10 µM (SNB-19): 48.8% | GI50 (HCT-15): 4.39 µM | TGI (HCT-15): > 100 µM | CC50 (HCT-15): > 100 µM | inhibition of growth at 10 µM (NCI-H23): 51.3% | GI50 (MOLT-4): 7.74 µM | TGI (MOLT-4): > 100 µM | CC50 (MOLT-4): > 100 µM | MFC (Candida albicans): 100 µg/mL (≈ 267 µM) | MIC (Candida albicans): 100 µg/mL (≈ 267 µM) | inhibition of growth at 10 µM (PC-3): 41.4% | MBC (Bacillus subtilis): 100 µg/mL (≈ 267 µM) | MIC (Bacillus subtilis): 100 µg/mL (≈ 267 µM) | GI50 (A549 [4]): 9.07 µM | TGI (A549 [4]): > 100 µM | CC50 (A549 [4]): > 100 µM | GI50 (CAKI-1): 2.8 µM | CC50 (CAKI-1): > 100 µM | inhibition of growth at 10 µM (SF-539 [5]): 60.5% | GI50 (LOX IMVI [6]): 5.02 µM | TGI (LOX IMVI [6]): > 100 µM | CC50 (LOX IMVI [6]): > 100 µM | GI50 (CCRF-CEM [7]): 4.77 µM | TGI (CCRF-CEM [7]): > 100 µM | CC50 (CCRF-CEM [7]): > 100 µM | GI50 (SK-MEL-28): 11.1 µM | LC50 (concentration killing 50% of cells) (SK-MEL-28): > 100 µM | TGI (SK-MEL-28): > 100 µM | GI50 (SK-MEL-2): 4.05 µM | TGI (SK-MEL-2): > 100 µM | CC50 (SK-MEL-2): > 100 µM | inhibition of growth at 10 µM (A549 [8]): 33.7% | inhibition of growth at 10 µM (SNB-75): 57.5% | GI50 (K562): 4.95 µM | TGI (K562): > 100 µM | CC50 (K562): > 100 µM | GI50 (SF-539 [9]): 4.05 µM | TGI (SF-539 [9]): 97.9 µM | CC50 (SF-539 [9]): > 100 µM | GI50 (A498): 6.66 µM | LC50 (A498): > 100 µM | TGI (A498): > 100 µM | GI50 (Hs-578T): 3.1 µM | TGI (Hs-578T): > 100 µM | CC50 (Hs-578T): > 100 µM | inhibition of growth at 10 µM (HT-29): 34.6% | inhibition of growth at 10 µM (OVCAR-3): 70.6% | inhibition of growth at 10 µM (MCF7): 68% | MBC (Pseudomonas aeruginosa): 100 µg/mL (≈ 267 µM) | MIC (Pseudomonas aeruginosa): 50 µg/mL (≈ 134 µM) | GI50 (SW-620 [10]): 5.09 µM | TGI (SW-620 [10]): > 100 µM | CC50 (SW-620 [10]): > 100 µM | inhibition of growth at 10 µM (CCRF-CEM [11]): 39.4%

COc1ccc(OC)c(/C=C/c2nnc(Nc3ccc(Cl)cc3)o2)c1
GI50 (Malme-3M): 9.87 µM | TGI (Malme-3M): 52.4 µM | CC50 (Malme-3M): > 100 µM | GI50 (SR): 48.2 µM | TGI (SR): > 100 µM | CC50 (SR): > 100 µM | inhibition of growth at 10 µM (SW-620 [2]): 33.3% | GI50 (M14 [3]): 20.7 µM | LC50 (M14 [3]): > 100 µM | TGI (M14 [3]): > 100 µM | inhibition of growth at 10 µM (ACHN): 67.4% | GI50 (HCT-15): 34.1 µM | TGI (HCT-15): > 100 µM | CC50 (HCT-15): > 100 µM | GI50 (MOLT-4): > 100 µM | TGI (MOLT-4): > 100 µM | CC50 (MOLT-4): > 100 µM | MFC (Candida albicans): 50 µg/mL (≈ 140 µM) | MIC (Candida albicans): 50 µg/mL (≈ 140 µM) | MBC (Bacillus subtilis): 100 µg/mL (≈ 279 µM) | MIC (Bacillus subtilis): 100 µg/mL (≈ 279 µM) | GI50 (A549 [4]): 3.67 µM | TGI (A549 [4]): 17.8 µM | CC50 (A549 [4]): 78.6 µM | GI50 (CAKI-1): 6.02 µM | TGI (CAKI-1): > 100 µM | CC50 (CAKI-1): > 100 µM | inhibition of growth at 10 µM (HOP-62): 64.7% | inhibition of growth at 10 µM (OVCAR-8): 33.3% | GI50 (LOX IMVI [6]): 7.91 µM | TGI (LOX IMVI [6]): > 100 µM | CC50 (LOX IMVI [6]): > 100 µM | GI50 (CCRF-CEM [7]): > 100 µM | TGI (CCRF-CEM [7]): > 100 µM | CC50 (CCRF-CEM [7]): > 100 µM | GI50 (SK-MEL-28): 26.8 µM | LC50 (concentration killing 50% of cells) (SK-MEL-28): > 100 µM | TGI (SK-MEL-28): > 100 µM | GI50 (SK-MEL-2): 9.66 µM | TGI (SK-MEL-2): > 100 µM | CC50 (SK-MEL-2): > 100 µM | inhibition of growth at 10 µM (A549 [8]): 59.8% | inhibition of growth at 10 µM (SNB-75): 84.2% | GI50 (K562): 92.8 µM | TGI (K562): > 100 µM | CC50 (K562): > 100 µM | GI50 (SF-539 [9]): 11.8 µM | TGI (SF-539 [9]): 60.5 µM | CC50 (SF-539 [9]): > 100 µM | GI50 (A498): 1.87 µM | LC50 (A498): > 100 µM | TGI (A498): 7.76 µM | GI50 (Hs-578T): 2.71 µM | TGI (Hs-578T): 8.01 µM | CC50 (Hs-578T): > 100 µM | inhibition of growth at 10 µM (OVCAR-3): 67.9% | MBC (Pseudomonas aeruginosa): 100 µg/mL (≈ 279 µM) | MIC (Pseudomonas aeruginosa): 100 µg/mL (≈ 279 µM) | inhibition of growth at 10 µM (LOX IMVI [12]): 32.3% | GI50 (SW-620 [10]): 18.3 µM | TGI (SW-620 [10]): > 100 µM | CC50 (SW-620 [10]): > 100 µM
